Test results published in patent US7589079B2, “Crystalline and amorphous forms of beta-L-2′-deoxythymidine” (Novartis AG, priority 2002, dated 2009).
Values after ≈ are worked out from the molar mass of the structure shown. Marks after values point to notes of the source that are not given here.

What was measured:
[1] = Approximate solubilities in various solvents at ambient temperature (crystallization screen); assay type: physicochemical
Experimental: A weighed sample of L-dT (usually 20-30 mg) was treated with aliquots of the test solvent. Solvents were either reagent or HPLC grade. The aliquots were usually 100 μL or 500 μL. Between additions the mixture was sonicated. When the solids dissolved, as judged by visual inspection, the solution was filtered, then left in an open vial under ambient conditions (fast evaporation). The procedure was repeated, and the resulting solution was left under ambient conditions in a vial with aluminum foil containing pinholes (slow evaporation). Samples were also generated by filtering a warm solution of L-dT into a cold antisolvent (cold precipitation).
Solubilities were estimated from these experiments based on the total solvent used to give a solution. Note that actual solubilities may be greater than those calculated because of the use of too-large solvent aliquots or a slow rate of dissolution.
Approximate solubilities of L-dT in various solvents at ambient temperature were determined during the crystalline screen, and are summarized in Table 1.

[2] = Moisture sorption/desorption (VTI SGA-100 Vapor Sorption Analyzer); assay type: physicochemical; conditions: for Moisture balance: loss from 95-5% RH: desorption from 95% to 5% RH; for Moisture balance: weight loss at 5% RH: equilibration at 5% RH; for Moisture balance: weight gain at 95% RH: sorption up to 95% RH; for Weight lost upon lowering the relative humidity (in words): lowering relative humidity from 95% RH to 5% RH
Experimental: Moisture sorption/desorption data were collected on a VTI SGA-100 Vapor Sorption Analyzer. Sorption and desorption data were collected over a range of 5% to 95% relative humidity (RH) at 10% RH intervals under a nitrogen purge. Samples were not dried prior to analysis. Equilibrium criteria used for analysis were less than 0.0100% weight change in 5 minutes, with a maximum equilibration time of 3 hours if the weight criterion was not met. Data were not corrected for the initial moisture content of the samples. NaCl and PVP were used as calibration standards.

[3] = solvent 1,1,1,3,3,3-hexafluoroisopropanol
[4] = solvent N,N-dimethylformamide (DMF)
[5] = solvent ethanol (EtOH), after 2 hours, all solid was dissolved

Compound	Solubility [1, 3]	Solubility ([1]; solvent 2,2,2-trifluoroethanol)	Solubility ([1]; solvent MeOH:water (1:1))	Solubility [1, 4]	Solubility ([1]; solvent THF:water (1:1))	Solubility ([1]; solvent acetone:water (4:1))	Solubility [1, 5]	Solubility ([1]; solvent methanol (MeOH))	Solubility ([1]; solvent water)	Weight lost upon lowering the relative humidity (in words) [2]	other results
Cc1cn([C@@H]2C[C@@H](O)[C@H](CO)O2)c(=O)[nH]c1=O [L-dT, beta-L-2′-deoxythymidine]	22 mg/mL (≈ 90.8 mM)	8 mg/mL (≈ 33 mM)	58 mg/mL (≈ 239 mM)	72 mg/mL (≈ 297 mM)	127 mg/mL (≈ 524 mM)	51 mg/mL (≈ 211 mM)	> 4 mg/mL	11 mg/mL (≈ 45.4 mM)	32 mg/mL (≈ 132 mM)	–	Solubility (in words) ([1]; in acetone, acetonitrile, ethyl acetate, diethyl ether, isopropanol, methylene chloride, and toluene): sparingly soluble
Cc1cn([C@@H]2C[C@@H](O)[C@H](CO)O2)c(=O)[nH]c1=O [Lot No. 1, beta-L-2′-deoxythymidine]	–	–	–	–	–	–	–	–	–	–	Moisture balance: loss from 95-5% RH ([2]; listed as 1): 1.1% loss from 95-5% RH; Moisture balance: weight loss at 5% RH ([2]; listed as 1): <0.1% weight loss at 5% RH; Moisture balance: weight gain at 95% RH ([2]; listed as 1): 1.1% weight gain at 95% RH
Cc1cn([C@@H]2C[C@@H](O)[C@H](CO)O2)c(=O)[nH]c1=O [Lot No. 2, beta-L-2′-deoxythymidine]	–	–	–	–	–	–	–	–	–	–	Moisture balance: loss from 95-5% RH ([2]; listed as 2): 2.7% loss from 95-5% RH; Moisture balance: weight loss at 5% RH ([2]; listed as 2): −0.4% weight loss at 5% RH; Moisture balance: weight gain at 95% RH ([2]; listed as 2): 2.8% weight gain at 95% RH
Cc1cn([C@@H]2C[C@@H](O)[C@H](CO)O2)c(=O)[nH]c1=O [amorphous L-dT, beta-L-2′-deoxythymidine]	–	–	–	–	–	–	–	–	–	loses almost all of this weight	Moisture balance: weight loss at 5% RH [2]: ~0.4%; Moisture sorption: weight gain up to about 55% RH ([2]; sorption up to about 55% RH): ~2.3%
Cc1cn([C@@H]2C[C@@H](O)[C@H](CO)O2)c(=O)[nH]c1=O [crystalline L-dT, beta-L-2′-deoxythymidine]	22 mg/mL (≈ 90.8 mM)	8 mg/mL (≈ 33 mM)	58 mg/mL (≈ 239 mM)	72 mg/mL (≈ 297 mM)	127 mg/mL (≈ 524 mM)	51 mg/mL (≈ 211 mM)	>3.6* mg/mL	11 mg/mL (≈ 45.4 mM)	32 mg/mL (≈ 132 mM)	All of this weight is lost	Solubility ([1]; solvent acetone): <4 mg/mL; Solubility ([1]; solvent acetonitrile (ACN)): <4 mg/mL; Solubility ([1]; solvent dichloromethane): <3 mg/mL; Solubility ([1]; solvent ethyl acetate (EtOAc)): <4 mg/mL; Solubility ([1]; solvent ethyl ether): <3 mg/mL; Solubility ([1]; solvent hexane): <4 mg/mL; Solubility ([1]; solvent isopropanol IPA): <3 mg/mL; Solubility ([1]; solvent tetrahydrofuran (THF)): 4 mg/mL (≈ 16.5 mM); Solubility ([1]; solvent toluene): <4 mg/mL; Moisture balance: weight gain at 95% RH [2]: 1.1%
